Measurements taken from ChEMBL document CHEMBL1201862, “PubChem BioAssay data set” (2004).
Activity calls are given as the source filed them.

Experiments:
[1] = target: Caspase-6 (Homo sapiens, UniProt P55212); assay: human caspase-6 inhibitors, dose response, biochemical, VEID-R110 fluorescence, cherry-pick (AID 720632)
[2] = target: Caspase-7 (Homo sapiens, UniProt P55210); assay: human caspase-7 inhibitors, dose response, selectivity assay for caspase-6 inhibitor project, biochemical, DEVD-R110 fluorescence, cherry-pick (AID 743295)
[3] = Shn3 3'UTR reporter inhibitors, dose response, cell-based, Clone20 osteoblasts, firefly luciferase, cherry-picked (AID 624132); format: functional;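 also: firefly luciferase luminescence from reporter carrying the Shn3 3'UTR in osteoblasts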
[4] = HepG2 cell cytotoxicity, dose response, cytotoxicity control for Shn3 inhibitor project, CellTiter-Glo, cherry-picked (AID 624134); format: functional, cell-based
[5] = control 3'UTR Renilla luciferase suppression, dose response, counter-screen for Shn3 inhibitor project, cell-based, Clone20-Shn3RL, cherry-picked (AID 624133); format: functional
[6] = reduction of Shn3 3'UTR firefly luciferase signal, dose response, Schnurri-3 inhibitor project, cell-based, Clone20 osteoblasts, cherry-pick, set 2 (AID 720490); format: functional;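 also: actives lower the luminescence signal as inhibitors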
[7] = target: Induced myeloid leukemia cell differentiation protein Mcl-1 (Homo sapiens, UniProt Q07820); format: functional
[8] = target: ORF 73 (Human herpesvirus 8, UniProt O40947); assay: inhibitors of C-LANA binding to LBS DNA, dose response, biochemical, fluorescence polarization, cherry-picked samples (AID 504725); parameters: species or system Human gammaherpesvirus 8;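 also: fluorescence polarization of a labeled DNA duplex reporting LANA DNA binding; potency is for inhibitors that block LANA binding to the DNA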
[9] = target: Intestinal-type alkaline phosphatase (Mus musculus, UniProt P24822); assay: PubChem AID 488785; format: functional
[10] = target: T1, Alkaline phosphatase, tissue-nonspecific isozyme (Homo sapiens, UniProt P05186); assay: TNAP enzyme inhibition by screening hits, dose response, selectivity assay for mouse IAP inhibitor project, biochemical, human TNAP, uHTS hits (AID 488906); format: functional
T1 sequence (P05186 whole entry): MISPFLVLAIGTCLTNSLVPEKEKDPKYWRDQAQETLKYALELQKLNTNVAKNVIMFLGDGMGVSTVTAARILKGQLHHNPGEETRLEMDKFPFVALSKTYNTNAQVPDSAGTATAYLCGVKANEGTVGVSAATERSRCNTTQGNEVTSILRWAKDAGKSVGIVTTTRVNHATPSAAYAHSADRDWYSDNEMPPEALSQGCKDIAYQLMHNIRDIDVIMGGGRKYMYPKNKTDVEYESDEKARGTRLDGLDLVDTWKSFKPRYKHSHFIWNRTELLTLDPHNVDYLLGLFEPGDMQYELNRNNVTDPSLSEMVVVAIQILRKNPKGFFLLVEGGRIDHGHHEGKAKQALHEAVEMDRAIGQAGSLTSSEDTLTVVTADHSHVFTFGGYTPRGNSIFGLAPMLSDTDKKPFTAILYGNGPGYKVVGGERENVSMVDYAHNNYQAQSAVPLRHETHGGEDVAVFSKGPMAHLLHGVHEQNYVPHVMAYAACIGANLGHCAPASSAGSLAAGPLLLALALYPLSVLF

[11] = target: Intestinal-type alkaline phosphatase (Homo sapiens, UniProt P09923); assay: inhibition of human intestinal alkaline phosphatase – biochemical, dose response (AID 488876); format: functional
[12] = target: Histone-lysine N-methyltransferase NSD2 (Homo sapiens, UniProt O96028); format: biochemical
[13] = target: 1-phosphatidylinositol 4,5-bisphosphate phosphodiesterase gamma-1 (Homo sapiens, UniProt P19174); assay: Counterscreen for inhibitors of phospholipase C isozymes (PLC-B3): Fluorescence-based biochemical high throughput dose response assay to identify inhibitors of phospholipase C isozymes (PLC-gamma1).
[14] = target: 1-phosphatidylinositol 4,5-bisphosphate phosphodiesterase beta-3 (Homo sapiens, UniProt Q01970); assay: Fluorescence-based biochemical high throughput dose response assay to identify inhibitors of phospholipase C isozymes (PLC-B3).
[15] = target: T2, Replicative DNA helicase DnaB (Mycobacterium tuberculosis, UniProt P9WMR3); assay: DnaB intein splicing inhibitors, dose response, biochemical, cell-free fluorescence (AID 449749); format: functional
T2 sequence (P9WMR3 whole entry): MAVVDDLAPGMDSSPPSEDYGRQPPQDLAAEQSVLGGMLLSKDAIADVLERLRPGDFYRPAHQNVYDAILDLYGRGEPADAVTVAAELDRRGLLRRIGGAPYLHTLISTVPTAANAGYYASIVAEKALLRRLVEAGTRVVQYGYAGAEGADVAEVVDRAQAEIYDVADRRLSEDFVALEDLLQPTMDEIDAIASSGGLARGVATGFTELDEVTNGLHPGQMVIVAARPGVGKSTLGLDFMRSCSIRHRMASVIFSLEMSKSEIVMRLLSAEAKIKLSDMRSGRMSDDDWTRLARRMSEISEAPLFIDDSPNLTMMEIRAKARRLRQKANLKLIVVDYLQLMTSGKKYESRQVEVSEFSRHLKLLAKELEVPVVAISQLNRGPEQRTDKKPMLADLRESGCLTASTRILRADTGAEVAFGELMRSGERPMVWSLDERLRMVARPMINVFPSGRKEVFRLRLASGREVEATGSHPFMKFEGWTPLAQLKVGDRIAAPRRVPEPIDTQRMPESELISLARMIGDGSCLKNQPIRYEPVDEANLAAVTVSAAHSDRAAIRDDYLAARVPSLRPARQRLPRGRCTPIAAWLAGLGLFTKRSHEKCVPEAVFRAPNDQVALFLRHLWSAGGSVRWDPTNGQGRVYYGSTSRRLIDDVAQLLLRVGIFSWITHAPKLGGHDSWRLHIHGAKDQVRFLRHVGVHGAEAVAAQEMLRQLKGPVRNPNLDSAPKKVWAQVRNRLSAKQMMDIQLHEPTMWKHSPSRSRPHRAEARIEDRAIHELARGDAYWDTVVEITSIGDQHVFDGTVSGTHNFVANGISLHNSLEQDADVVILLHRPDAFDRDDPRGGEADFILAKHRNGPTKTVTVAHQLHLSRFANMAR

[16] = target: T3, Apoptotic protease-activating factor 1 (Homo sapiens, UniProt O14727); format: functional
T3 sequence (O14727 whole entry): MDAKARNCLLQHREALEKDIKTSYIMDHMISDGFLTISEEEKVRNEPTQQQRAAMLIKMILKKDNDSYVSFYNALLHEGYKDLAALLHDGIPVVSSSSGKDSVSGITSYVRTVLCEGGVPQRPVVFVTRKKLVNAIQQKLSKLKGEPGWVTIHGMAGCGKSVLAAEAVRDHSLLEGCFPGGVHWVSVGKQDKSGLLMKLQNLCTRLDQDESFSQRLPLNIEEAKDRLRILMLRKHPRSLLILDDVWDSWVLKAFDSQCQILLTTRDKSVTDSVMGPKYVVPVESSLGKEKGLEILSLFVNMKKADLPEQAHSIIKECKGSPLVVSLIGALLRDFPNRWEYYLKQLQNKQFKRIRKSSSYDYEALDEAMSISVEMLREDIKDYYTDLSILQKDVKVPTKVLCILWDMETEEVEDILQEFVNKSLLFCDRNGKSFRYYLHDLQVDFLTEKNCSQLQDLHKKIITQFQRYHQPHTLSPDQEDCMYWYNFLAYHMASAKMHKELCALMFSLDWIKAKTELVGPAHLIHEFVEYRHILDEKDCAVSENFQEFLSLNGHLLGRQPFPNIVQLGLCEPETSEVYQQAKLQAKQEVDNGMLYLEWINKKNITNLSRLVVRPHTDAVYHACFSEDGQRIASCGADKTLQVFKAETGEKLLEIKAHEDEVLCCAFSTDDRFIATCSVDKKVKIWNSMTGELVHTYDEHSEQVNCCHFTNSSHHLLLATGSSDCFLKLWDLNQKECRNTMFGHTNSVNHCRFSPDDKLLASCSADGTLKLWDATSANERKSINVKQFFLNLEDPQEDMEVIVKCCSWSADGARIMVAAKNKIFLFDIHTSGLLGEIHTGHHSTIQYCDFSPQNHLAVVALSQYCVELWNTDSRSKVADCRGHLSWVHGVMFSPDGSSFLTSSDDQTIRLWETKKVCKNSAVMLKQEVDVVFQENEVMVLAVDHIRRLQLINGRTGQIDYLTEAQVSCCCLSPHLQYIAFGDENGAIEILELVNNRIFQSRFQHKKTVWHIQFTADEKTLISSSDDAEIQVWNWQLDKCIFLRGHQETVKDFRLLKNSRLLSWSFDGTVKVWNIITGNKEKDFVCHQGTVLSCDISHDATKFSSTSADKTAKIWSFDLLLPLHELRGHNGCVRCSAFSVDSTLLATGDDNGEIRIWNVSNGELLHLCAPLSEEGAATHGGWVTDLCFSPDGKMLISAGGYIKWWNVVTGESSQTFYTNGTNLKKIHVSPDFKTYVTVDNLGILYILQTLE

[17] = target: T4, Protein RecA (Mycobacterium tuberculosis, UniProt P9WHJ3); assay: Fluorescence Cell-Free Homogeneous Dose Retest to Identify Inhibitors of RecA-Intein Splicing Activity. [Related pubchem assays (depositor defined):AID2097, AID2223, AID489010, AID492950]; format: functional
T4 sequence (P9WHJ3 whole entry): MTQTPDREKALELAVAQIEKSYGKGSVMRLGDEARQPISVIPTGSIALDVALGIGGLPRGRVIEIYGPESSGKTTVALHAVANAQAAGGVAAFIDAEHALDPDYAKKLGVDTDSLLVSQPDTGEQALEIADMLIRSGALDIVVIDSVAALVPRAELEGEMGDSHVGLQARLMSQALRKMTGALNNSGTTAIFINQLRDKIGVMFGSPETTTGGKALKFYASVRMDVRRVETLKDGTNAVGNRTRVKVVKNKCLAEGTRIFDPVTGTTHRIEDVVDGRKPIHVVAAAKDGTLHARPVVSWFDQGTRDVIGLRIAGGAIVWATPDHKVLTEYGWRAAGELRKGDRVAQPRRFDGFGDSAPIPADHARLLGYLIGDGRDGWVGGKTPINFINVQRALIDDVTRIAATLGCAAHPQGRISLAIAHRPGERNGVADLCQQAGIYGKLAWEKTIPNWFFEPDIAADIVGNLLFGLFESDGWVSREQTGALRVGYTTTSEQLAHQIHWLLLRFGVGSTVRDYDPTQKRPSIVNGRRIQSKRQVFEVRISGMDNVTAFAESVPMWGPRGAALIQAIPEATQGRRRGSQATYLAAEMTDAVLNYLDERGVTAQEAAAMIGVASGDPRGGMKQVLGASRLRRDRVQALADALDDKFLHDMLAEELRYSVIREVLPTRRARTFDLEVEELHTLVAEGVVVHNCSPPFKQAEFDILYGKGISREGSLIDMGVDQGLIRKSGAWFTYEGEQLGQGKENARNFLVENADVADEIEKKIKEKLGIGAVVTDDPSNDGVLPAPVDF

[18] = target: Tyrosyl-DNA phosphodiesterase 2 (Homo sapiens, UniProt O95551); assay: human TDP2 enzyme inhibitors, dose response, biochemical, epi absorbance, IC50 (AID 743297)
[19] = A375 melanoma cell cytotoxicity, dose response, counter-screen for MITF inhibitor project, CellTiter-Glo luminescence, dry powder, set 2 (AID 624489); format: functional, cell-based; conditions: A-375;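 also: actives are compounds lowering A375 viability meaning general cytotoxicity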
[20] = NIH/3T3 fibroblast cytotoxicity, dose response, cytotoxicity control, cell-based, plate reader, dry powder, set 2 (AID 652280); format: functional; conditions: NIH3T3
[21] = T. cruzi growth inhibition in host cells, dose response, cell-based, plate reader, dry powder, set 2 (AID 652275); format: functional
[22] = YAP1 pathway inhibition via CTGF transcript levels, dose response, cell-based, DLD1 colon cancer, RT-qPCR, cherry-pick (AID 1053122); format: functional; conditions: Cancer cell lines
[23] = HEK293 cell cytotoxicity, dose response, cytotoxicity control, ATP luminescence, dry powder, Set6 (AID 743142); format: functional, cell-based
[24] = A549 cell cytotoxicity, dose response, cytotoxicity control, CellTiter-Glo luminescence, dry powder, set 3 (AID 743146); format: functional, cell-based
[25] = HepG2 cell cytotoxicity, dose response, cytotoxicity control, luminescence plate reader, powder samples, set 2 (AID 651860); format: functional, cell-based

Intestinal-type alkaline phosphatase (Homo sapiens, UniProt P09923), sequence (P09923 whole entry): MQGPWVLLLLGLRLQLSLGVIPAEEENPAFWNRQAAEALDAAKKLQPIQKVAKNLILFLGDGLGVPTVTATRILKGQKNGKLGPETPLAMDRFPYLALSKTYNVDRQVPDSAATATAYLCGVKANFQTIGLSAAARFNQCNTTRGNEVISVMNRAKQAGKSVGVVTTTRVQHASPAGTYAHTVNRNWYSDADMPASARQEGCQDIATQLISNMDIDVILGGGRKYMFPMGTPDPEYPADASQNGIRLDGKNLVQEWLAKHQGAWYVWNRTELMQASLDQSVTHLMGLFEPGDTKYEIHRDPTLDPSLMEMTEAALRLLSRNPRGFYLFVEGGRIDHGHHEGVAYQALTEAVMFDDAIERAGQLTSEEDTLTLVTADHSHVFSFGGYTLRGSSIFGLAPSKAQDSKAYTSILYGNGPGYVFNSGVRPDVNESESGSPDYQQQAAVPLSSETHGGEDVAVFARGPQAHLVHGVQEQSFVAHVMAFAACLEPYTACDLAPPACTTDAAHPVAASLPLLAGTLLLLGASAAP
Caspase-6, sequence (P55212 24-179 limits assumed): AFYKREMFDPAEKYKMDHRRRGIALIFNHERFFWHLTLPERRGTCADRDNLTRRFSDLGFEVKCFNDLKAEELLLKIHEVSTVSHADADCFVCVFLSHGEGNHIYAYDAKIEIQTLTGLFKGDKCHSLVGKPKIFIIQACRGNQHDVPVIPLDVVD
Caspase-6, sequence (P55212 194-293 limits assumed): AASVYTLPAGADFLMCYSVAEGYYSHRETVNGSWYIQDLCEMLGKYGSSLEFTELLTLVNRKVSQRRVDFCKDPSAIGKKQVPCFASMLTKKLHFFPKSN
Induced myeloid leukemia cell differentiation protein Mcl-1, sequence (Q07820 whole entry): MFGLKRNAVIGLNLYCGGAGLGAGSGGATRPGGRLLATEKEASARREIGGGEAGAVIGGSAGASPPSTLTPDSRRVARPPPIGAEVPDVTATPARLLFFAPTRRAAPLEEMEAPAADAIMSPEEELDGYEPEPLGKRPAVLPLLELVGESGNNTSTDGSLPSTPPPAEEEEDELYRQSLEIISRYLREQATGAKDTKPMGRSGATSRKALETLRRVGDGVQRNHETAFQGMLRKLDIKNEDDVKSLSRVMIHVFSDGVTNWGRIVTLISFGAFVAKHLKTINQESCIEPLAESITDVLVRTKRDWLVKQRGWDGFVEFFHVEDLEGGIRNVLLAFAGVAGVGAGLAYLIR
Intestinal-type alkaline phosphatase (Mus musculus, UniProt P24822), sequence (P24822 whole entry): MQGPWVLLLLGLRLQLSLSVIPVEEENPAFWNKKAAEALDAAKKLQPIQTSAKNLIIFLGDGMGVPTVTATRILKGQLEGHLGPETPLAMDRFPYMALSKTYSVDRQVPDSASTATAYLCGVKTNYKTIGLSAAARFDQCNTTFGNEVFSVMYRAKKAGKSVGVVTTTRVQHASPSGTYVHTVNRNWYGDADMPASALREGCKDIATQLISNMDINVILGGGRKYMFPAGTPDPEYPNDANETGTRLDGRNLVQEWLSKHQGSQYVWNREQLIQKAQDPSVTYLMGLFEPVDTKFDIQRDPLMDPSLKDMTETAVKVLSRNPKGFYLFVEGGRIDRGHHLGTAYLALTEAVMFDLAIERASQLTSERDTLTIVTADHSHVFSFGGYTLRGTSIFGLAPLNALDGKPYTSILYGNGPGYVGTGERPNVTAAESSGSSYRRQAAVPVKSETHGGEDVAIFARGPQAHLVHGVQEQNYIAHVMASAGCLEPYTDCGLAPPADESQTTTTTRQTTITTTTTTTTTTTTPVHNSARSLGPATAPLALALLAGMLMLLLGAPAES
Tyrosyl-DNA phosphodiesterase 2, sequence (O95551 whole entry): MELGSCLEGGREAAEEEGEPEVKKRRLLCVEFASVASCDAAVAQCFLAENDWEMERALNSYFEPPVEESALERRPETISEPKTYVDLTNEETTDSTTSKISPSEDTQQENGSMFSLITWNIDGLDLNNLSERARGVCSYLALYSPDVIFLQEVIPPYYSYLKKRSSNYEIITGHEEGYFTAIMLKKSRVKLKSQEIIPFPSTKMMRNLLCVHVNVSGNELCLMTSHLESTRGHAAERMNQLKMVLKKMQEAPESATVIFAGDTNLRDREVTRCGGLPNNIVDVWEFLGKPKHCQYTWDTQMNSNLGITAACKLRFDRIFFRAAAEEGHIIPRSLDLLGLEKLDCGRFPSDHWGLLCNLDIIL
1-phosphatidylinositol 4,5-bisphosphate phosphodiesterase gamma-1, sequence (P19174 whole entry): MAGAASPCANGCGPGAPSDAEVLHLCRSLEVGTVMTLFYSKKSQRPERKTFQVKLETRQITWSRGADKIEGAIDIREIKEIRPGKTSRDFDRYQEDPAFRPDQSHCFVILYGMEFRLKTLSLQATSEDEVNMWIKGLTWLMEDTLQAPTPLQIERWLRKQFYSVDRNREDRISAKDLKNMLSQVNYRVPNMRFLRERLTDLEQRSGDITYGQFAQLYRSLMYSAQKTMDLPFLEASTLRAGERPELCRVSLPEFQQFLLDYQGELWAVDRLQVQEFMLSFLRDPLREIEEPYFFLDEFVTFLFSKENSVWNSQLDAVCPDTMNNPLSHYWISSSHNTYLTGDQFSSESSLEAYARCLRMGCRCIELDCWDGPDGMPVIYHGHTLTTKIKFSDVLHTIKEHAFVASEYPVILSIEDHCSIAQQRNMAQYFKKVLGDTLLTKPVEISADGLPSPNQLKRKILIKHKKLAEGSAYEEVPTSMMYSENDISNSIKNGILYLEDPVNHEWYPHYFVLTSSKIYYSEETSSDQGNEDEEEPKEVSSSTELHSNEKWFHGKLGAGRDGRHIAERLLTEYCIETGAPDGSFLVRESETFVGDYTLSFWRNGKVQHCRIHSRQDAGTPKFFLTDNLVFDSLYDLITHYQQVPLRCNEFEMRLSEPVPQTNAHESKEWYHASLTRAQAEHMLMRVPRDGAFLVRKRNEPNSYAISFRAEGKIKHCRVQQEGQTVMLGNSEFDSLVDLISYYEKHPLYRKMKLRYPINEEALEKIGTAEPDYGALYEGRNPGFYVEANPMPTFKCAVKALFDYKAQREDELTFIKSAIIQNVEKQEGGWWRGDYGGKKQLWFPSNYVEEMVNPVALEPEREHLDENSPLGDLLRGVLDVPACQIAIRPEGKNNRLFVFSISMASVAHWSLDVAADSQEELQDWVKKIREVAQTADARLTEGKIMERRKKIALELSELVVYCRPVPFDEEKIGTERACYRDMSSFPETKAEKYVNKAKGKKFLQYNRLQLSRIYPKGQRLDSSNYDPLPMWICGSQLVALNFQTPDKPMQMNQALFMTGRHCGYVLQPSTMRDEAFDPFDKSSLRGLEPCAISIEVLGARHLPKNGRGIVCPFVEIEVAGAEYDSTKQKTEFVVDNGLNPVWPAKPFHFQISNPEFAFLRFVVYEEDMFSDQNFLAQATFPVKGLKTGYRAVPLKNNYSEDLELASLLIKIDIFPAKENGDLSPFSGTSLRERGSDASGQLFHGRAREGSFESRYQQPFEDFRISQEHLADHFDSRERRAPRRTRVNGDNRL
Caspase-7, sequence (P55210 24-198 limits assumed): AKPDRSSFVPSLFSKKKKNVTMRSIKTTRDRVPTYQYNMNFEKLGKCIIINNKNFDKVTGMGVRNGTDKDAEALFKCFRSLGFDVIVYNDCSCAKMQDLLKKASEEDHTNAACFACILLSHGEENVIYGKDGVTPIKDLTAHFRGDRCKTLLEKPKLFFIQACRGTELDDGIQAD
Caspase-7, sequence (P55210 207-303 limits assumed): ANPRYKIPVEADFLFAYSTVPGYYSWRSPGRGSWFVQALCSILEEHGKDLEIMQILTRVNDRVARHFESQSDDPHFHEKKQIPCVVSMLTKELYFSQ
1-phosphatidylinositol 4,5-bisphosphate phosphodiesterase beta-3, sequence (Q01970 whole entry): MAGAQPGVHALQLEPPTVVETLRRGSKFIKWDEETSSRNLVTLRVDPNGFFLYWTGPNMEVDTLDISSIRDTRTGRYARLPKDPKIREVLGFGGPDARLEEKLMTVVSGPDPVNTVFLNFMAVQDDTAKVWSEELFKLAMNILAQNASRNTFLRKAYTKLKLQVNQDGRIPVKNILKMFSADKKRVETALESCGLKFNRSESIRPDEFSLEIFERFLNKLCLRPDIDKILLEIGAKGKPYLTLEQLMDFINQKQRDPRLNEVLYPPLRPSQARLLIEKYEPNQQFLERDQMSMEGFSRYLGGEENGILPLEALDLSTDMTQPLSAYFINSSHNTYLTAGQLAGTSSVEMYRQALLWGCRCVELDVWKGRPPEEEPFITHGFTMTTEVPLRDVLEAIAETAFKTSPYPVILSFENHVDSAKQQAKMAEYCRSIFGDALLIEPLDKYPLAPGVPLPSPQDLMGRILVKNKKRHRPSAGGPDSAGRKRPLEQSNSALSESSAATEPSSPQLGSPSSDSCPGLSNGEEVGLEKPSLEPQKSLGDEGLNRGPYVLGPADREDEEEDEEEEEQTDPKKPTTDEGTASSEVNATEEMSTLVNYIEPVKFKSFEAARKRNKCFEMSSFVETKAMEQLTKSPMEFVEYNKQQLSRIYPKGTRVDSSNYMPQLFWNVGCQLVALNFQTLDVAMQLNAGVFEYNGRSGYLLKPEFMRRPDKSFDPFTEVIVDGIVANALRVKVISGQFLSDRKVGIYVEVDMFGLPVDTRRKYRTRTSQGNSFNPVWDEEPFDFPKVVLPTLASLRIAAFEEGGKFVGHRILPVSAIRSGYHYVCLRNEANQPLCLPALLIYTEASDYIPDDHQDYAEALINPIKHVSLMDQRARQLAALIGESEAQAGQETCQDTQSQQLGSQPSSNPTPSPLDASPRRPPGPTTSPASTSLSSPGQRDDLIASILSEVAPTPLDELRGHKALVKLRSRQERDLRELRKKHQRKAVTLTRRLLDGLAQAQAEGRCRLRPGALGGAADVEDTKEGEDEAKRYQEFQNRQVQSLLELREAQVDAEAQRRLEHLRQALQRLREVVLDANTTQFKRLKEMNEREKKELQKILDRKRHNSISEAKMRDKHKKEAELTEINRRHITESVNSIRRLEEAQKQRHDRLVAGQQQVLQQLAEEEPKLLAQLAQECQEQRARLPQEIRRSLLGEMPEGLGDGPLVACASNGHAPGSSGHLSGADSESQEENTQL

With `O=C(O)CCc1ccc(-c2ccc(Br)cc2)n1CC(=O)O` the AC50 [1] was 3.5 µM (active) and the AC50 [2] was > 70 µM (inactive).
For `CCn1c(CNC(=O)c2cc(OC)c(OC)c(OC)c2)cc2cc(C)ccc21`, the AC50 [3] was 2.52 µM (active), the AC50 [4] was > 70 µM (inactive) and the AC50 [5] was 13.4 µM (active). The AC50 [6] was 3.79 µM (active).
With `O=C(O)CCCN1C(=O)/C(=C/C=C/c2ccco2)SC1=S` the IC50 [7] was 19.3 µM (not active), the AC50 [8] was 175 µM (active) and the IC50 [9] was 1.4 µM (active). For the same molecule, the IC50 [10] was 39.1 µM (active), the IC50 [11] was > 100 µM (inactive) and the AC50 [12] was 2.42 µM (active). For the same molecule, the IC50 [13] was > 122 µM (inactive) and the IC50 [14] was > 122 µM (inactive).
For `Cc1ccc(C(C[N+](=O)[O-])c2c(C)[nH]n(-c3ccccc3)c2=O)cc1` (stereo not given), the AC50 [15] was 3.52 µM (active), the IC50 [16] was 24.1 µM (active) and the EC50 [17] was 3.16 µM (active). The IC50 [18] was 24.2 µM (inactive).
For `C=CCNC1=C(NCCCN2CCOCC2)C(=O)c2ccccc2C1=O`, the AC50 [19] was > 70 µM (inactive).
For `CC(C)(O)C#Cc1cccc(-c2nc(C(=O)NCc3ccc4c(c3)OCO4)cc3c2[C@@H](CCO)N([S+]([O-])C(C)(C)C)C3)c1` (stereo not given in full), the AC50 [20] was 12.1 µM (active) and the AC50 [21] was 3.93 µM (active).
In the case of `C[C@@H]1CN([C@H](C)CO)S(=O)(=O)c2ccc(C#Cc3cccc(F)c3)cc2O[C@@H]1CN(C)S(=O)(=O)c1cn(C)cn1`, the AC50 [22] is reported as 3.47 µM (active).
With `O=C(CCNC(=O)c1ccc(Cl)cc1)N[C@@H]1CCCc2ccccc21` the AC50 [23] was 4.12 µM (active) and the AC50 [24] was > 52 µM (inactive).
For `O=C(O)[C@H]1CCCC[C@H]1C(=O)NC(CN1C(=O)c2ccccc2C1=O)c1ccccc1` (stereo not given in full), the AC50 [25] was > 52 µM (inactive).
